Experimental data taken from patent US9109001B2, “3′,5′-cyclic phosphoramidate prodrugs for HCV infection” (priority 2012, dated 2015).
Where two headings read alike, the source gives them in different places.

Columns and labels:
HCV genotype 1b replicon = assay: HCV Replicon Assay; assay type: cell-based
Description: Huh-7-derived cell line (Zluc) that harbors an HCV genotype 1b replicon and a luciferase reporter gene was grown in Dulbecco's Modified Eagle Medium (DMEM) supplemented with 10% fetal bovine serum, 2 mM GlutaMAX, 1% MEM nonessential amino acids, 100 IU/mL penicillin, 100 μg/mL streptomycin, and 0.5 mg/mL Geneticin® (G418). For dose response testing the cells were seeded in 96-well plates at 7.5×10^3 cells per well in a volume of 50 μL, and incubated at 37° C./5% CO2. Drug solutions were made up freshly in Huh-7 media as 2× stocks. Ten additional 5-fold dilutions were prepared from these stocks in DMEM without G418. At least three hours after Zluc cells were seeded, drug treatment was initiated by adding 50 μL of drug dilutions to the plates in duplicate. Final concentrations of drug ranged from 100 μM to […]. Cells were then incubated at 37° C./5% CO2. Alternatively, compounds were tested at two concentrations (1 μM and 10 μM). […] For this, media was removed from the plates via gentle tapping. Fifty microliters of ONE-glo luciferase assay reagent was added to each well. The plates were shaken gently for 3 min at room temperature and luminescence was measured on a Victor^3 V 1420 multilabel counter (Perkin Elmer) with a 1 second read time using a 700 nm cut-off filter. The EC50 values were calculated from dose response curves from the resulting best-fit equations determined by Microsoft Excel and XLfit 4.1 software. When screening at two fixed concentrations, the results were expressed as % inhibition at 1 μM and 10 μM.

Zluc cells = assay: Cytotoxicity evaluation (CellTiter-Blue Cell Viability Assay); assay type: cell-based, human; settings: read-out: HCV Replicon CC50
[1] = Stability in simulated intestinal fluid; assay type: in vitro ADME; settings: 100 μM, 2 hours at 37° C.; percent of peak area at time zero
Description: Stability in Simulated Gastric and Intestinal Fluids: Simulated gastric and intestinal fluids containing pepsin and pancreatin respectively were prepared according to the U.S. Pharmacopoeia USP291 procedure (www.pharmacopeia.cn/v29240/usp29nf24s0_ris1s126.html). Test compound (final concentration 100 μM) was incubated in duplicate in the appropriate fluid for 2 hours at 37° C. The samples were quenched with 200 μl cold acetonitrile, vortexed for 30 seconds and then centrifuged at 16,100 g for 10 min. The supernatants were analyzed by HPLC on a C-18 column with UV detection at 252 nm. The time 0 samples were prepared by adding SGF or SIF fluid to the quenching solvent followed by the test compound. Stability of the compound was determined by peak area the test compound after incubation and calculated as percent of the peak area observed at time zero.

[2] = Stability in fresh human whole blood; assay type: in vitro ADME; settings: 0.5 μM, percent unchanged test compound
Description: (§1) Stability in Fresh Whole Blood: Stability of test compounds were determined in fresh human whole blood with K2EDTA as the anticoagulant (stored refrigerated at 2-8° C. and used within 7 days of receipt). The experiment was conducted with three replicates for each time point. Whole blood, pre-incubated at 37° C. for 10-15 minutes, was fortified with a solution of test compound for a final concentration of 0.5 μM and mixed for 30 sec. At intervals (0, 0.5, 1 and 2 hr), three 50-μL aliquots were combined with 200 μL (each) of an ice-cold solution of the internal standard (carbutamide 500 ng/mL in acetonitrile). The samples were vortexed for 30 sec and then centrifuged at 16,100 g for 5 min. The supernatant was analyzed by LC-MS/MS. The MS peak area ratio of the test compound versus the internal standard was calculated and percent unchanged test compound was calculated for each time point using this ratio.

Stability in mouse blood = assay type: in vitro ADME; settings: on ice, percent unchanged test compound
Description: as §1
The stability in mouse blood was determined on ice at 0, 0.5 and 1 hr as above.

[3] = Stability in human liver microsomes; assay type: in vitro ADME; settings: 10 μM, 1.0 mg/mL protein, NADPH, 60 min; percent unchanged
Description: Stability in Liver and Intestinal Subcellular Fractions: Stability of test compounds were determined in subcellular fractions (microsomes and S9) of human liver and intestine in duplicate for each matrix. Pooled liver and intestinal microsomal, intestinal and liver S9 proteins (1.0 mg/mL), suspended in incubation buffer (100 mM potassium phosphate, pH 7.4, 5 mM MgCl2, and 0.1 mM EDTA), were preincubated for 5 min at 37° C. with 10 μM of a test compound from a 10 mM stock solution in DMSO (final DMSO concentration was 0.1%); the reaction was initiated by the addition of NADPH (3 mM final concentration). At specific times (0 and 60 min), 0.1 mL samples were taken and the reaction terminated by the addition of 4 volumes of stop solution (acetonitrile with 500 ng/mL carbutamide as an internal standard). The samples were vortexed for 30 sec and then centrifuged at 16,000 g for 10 min. 100 μL of supernatants were transferred to 96 deep-well plates preloaded with 100 μL distilled water and analyzed after mixing by LC-MS/MS. The MS peak area ratio of the test compound versus the internal standard was calculated and percent unchanged test compound over 60 minutes was calculated using this ratio.

fresh human hepatocytes = assay: Release of active metabolite in fresh human hepatocytes; assay type: in vitro ADME; settings: 10 μM
Description: Assay for the Release of Active Metabolite in Primary Hepatocytes: Plates of fresh human and mouse hepatocytes were obtained on ice. The medium was removed and replaced with hepatocyte culture medium (William's E supplemented with penicillin-streptomycin, 1% L-glutamine, 1% insulin-transferrin-selenium and 0.1 μM Dexamethasone (Invitrogen) or with Invitro GRO HI medium complemented with Torpedo antibiotics (Celsis)). Cells were left overnight in an incubator at 37° C. to acclimatize to culture and the medium.
Hepatocyte incubations were conducted at a final volume of 0.5 mL hepatocyte culture medium/well (0.8 million cells/well for human and 0.5 million cells/well for mouse; 12 well plate no overlay, collagen coat). Culture medium from overnight incubation of cells was removed and replaced with fresh medium, pre-warmed to 37° C., containing 10 μM of test compound from a stock solution in DMSO (final DMSO concentration was 0.1%). At each specific time point, incubation medium was removed and cell monolayers were carefully washed two times with ice-cold PBS. Following the last wash, all PBS was carefully removed and 1.0 mL of extraction solution (ice-cold 70% methanol/30% water) added. Cells were scraped off and suspended in the extraction solution, transferred to 2 mL polypropylene microfuge tubes and intracellular contents extracted overnight at −20° C.
After the overnight treatment the cellular extracts were prepared by centrifugation at 16,000×g for 10 min to remove cellular debris. The remaining sample was then dried using a refrigerated centrivap concentrator. Dry extracts were reconstituted in 1000 μL of HPLC-grade water and centrifuged at 16,000×g for 10 min. Aliquots (100 μL each) of the supernatant were transferred into a 96 well plate and internal standard (4 ng/mL final concentration) was added as the internal standard (IS) for LC-MS/MS analysis.
The incubation time points were 6, 24 and 48 hours for human hepatocytes and 1, 4, 8, 12 and 24 hours for mouse hepatocytes.

Huh-7 cells = assay: Release of active metabolite in Huh-7 cells; assay type: in vitro ADME, human; settings: Table 6, AUC0-72
Description: Assay for the Release of Active Metabolite in Huh-7 Cells. Huh-7 cells were plated in 1 mL culture medium (DMEM, containing glucose, L-glutamine and sodium pyruvate, 10% FBS, 100 IU/mL penicillin, 100 μg/mL streptomycin, 2 mM GlutaMAX, 1% MEM non-essential amino acids) at the concentration 0.8, 0.4 and 0.2 million cells per well on 6 well plates for 24, 48 and 72 hr treatment, respectively. Plated cells were incubated overnight at 37° C. in an incubator.
The following morning test compound was diluted to 20 μM from a stock solution in DMSO in fresh culture medium pre-warmed to 37° C. and 1 mL of the solution/well was added to cells. A final medium volume per well was 2.0 mL, test compound concentration in well was 10 μM and final DMSO concentration was 0.1%.
After 24, 48 or 72 hr, the medium was carefully removed and cell monolayers were washed twice with 2 mL ice-cold PBS per well. Following the last wash, all PBS was carefully removed and 1.0 mL of extraction solution (ice-cold 70% methanol) added. The plate was tightly covered with Parafilm, plastic plate cover and Parafilm again and an intracellular content was extracted at −20° C. for 24 hr.
After 24 hr extracts were transferred into polypropylene microfuge tubes and dry on a refrigerated centrivap concentrator. Dry residues were reconstituted in 250 μL of HPLC-grade water and centrifuged at 16,000×g for 10 min. Aliquots (100 μL each) of the supernatants were transferred into a 96 well plate and internal standard (4 ng/mL final concentration) was added as the internal standard (IS) for LC-MS/MS analysis.

cathepsin A (CatA) = biological target: T1, cathepsin A (CatA) (Homo sapiens, UniProt P10619); assay: CatA hydrolysis assay; assay type: in vitro ADME; settings: for CatA hydrolysis @ 18 h: 100 μM compound, 37° C.
T1 sequence (P10619 29-326 limits assumed): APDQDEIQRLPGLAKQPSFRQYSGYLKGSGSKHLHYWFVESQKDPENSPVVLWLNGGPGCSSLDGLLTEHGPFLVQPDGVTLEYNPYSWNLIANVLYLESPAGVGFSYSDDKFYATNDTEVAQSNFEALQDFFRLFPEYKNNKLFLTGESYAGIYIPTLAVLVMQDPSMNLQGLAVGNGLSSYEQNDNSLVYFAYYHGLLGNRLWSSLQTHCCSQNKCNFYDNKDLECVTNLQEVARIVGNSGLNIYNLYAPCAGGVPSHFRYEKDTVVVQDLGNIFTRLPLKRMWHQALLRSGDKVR
T1 sequence (P10619 327-480 limits assumed): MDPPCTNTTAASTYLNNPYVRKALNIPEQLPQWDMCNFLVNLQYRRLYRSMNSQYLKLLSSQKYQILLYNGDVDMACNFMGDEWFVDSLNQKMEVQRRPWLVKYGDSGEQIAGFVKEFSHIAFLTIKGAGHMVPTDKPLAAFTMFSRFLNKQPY
Description: CatA, cathepsin L (CatL) and CES1 were purchased from R & D Systems (Minneapolis, Minn.). Prior to the enzymatic hydrolysis reactions, CatA was activated according to the manufacturer's instruction. Briefly, CatA (0.05 μg/μL) was incubated with CatL (0.005 μg/μL) for 30 min at 37° C. in 25 mM MES pH 6.0 containing 5 mM DTT. The reaction was stopped by addition of the CatL specific inhibitor E64 (10 μM).
The CatA assay was performed at 37° C. The reaction mixture contained 25 mM MES buffer pH 6.0, 100 mM NaCl, 4 mM DTT and 100 μM of the compound. The reaction was started by addition of the activated CatA enzyme to a final concentration of 0.005 μg/μL. One hundred-μL aliquots were taken after 0.5 min, 3 hrs and 18 hrs of incubation. Reactions were stopped by mixing the sample with an equal volume of ice-cold methanol, and were loaded on a HPLC for analysis.
(§2) Samples were analyzed by HPLC using 5 μC-18, 4.6×250 mm Phenomenex® Columbus column (Phenomenex USA, CA). The mobile phase consisted of buffer A (25 mM potassium phosphate with 5 mM tetrabutylammonium dihydrogen phosphate pH 6.3) and buffer B (100% methanol).

[4] = biological target: T2, carboxylesterase 1 (CES1) (Homo sapiens, UniProt P23141); assay: CES1 hydrolysis assay; settings: 100 μM compound, 37° C.
T2 sequence (P23141 18-567): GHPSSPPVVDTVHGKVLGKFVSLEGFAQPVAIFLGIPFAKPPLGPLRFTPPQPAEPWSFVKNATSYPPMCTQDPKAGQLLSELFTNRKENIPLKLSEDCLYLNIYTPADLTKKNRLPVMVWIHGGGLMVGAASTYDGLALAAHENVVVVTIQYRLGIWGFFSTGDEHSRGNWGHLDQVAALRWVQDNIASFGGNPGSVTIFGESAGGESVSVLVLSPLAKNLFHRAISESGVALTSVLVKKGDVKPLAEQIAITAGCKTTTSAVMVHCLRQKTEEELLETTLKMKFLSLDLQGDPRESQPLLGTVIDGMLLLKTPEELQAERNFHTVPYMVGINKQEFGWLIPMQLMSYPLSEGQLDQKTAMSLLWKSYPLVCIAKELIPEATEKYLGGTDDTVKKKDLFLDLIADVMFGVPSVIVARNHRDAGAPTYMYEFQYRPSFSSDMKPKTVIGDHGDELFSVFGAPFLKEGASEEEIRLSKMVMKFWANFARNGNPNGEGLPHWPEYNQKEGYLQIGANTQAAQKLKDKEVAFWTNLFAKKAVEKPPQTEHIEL
Description: (§3) CES1 assay was performed at 37° C. in the reaction mixture containing 50 mM Tris/HCl buffer pH 7.5 and 100 μM of the compound. Reaction was started by addition of the CES1 to the final concentration 0.01 μg/mL. 100 μL aliquots were taken after 0.5 min, 3 hrs and 21 hrs of the incubation and the reaction was stopped by mixing with 100 μl of the ice-cold methanol prior to HPLC analysis.
as §2

Liver TP (Table 6) = assay type: in vivo; settings: liver triphosphate, species and dose not stated
[5] = biological target: T2, carboxylesterase 1 (CES1)
Description: as §3, §2

CCOc1nc(N)nc2c1ncn2[C@@H]1O[C@@H]2COP(=O)(NCCC(=O)OC(C)C)O[C@H]2[C@@]1(C)F (single isomer, unassigned) [Compound 2 Diastereomer 2]
EC50 (HCV genotype 1b replicon; Zluc (Huh-7-derived) cells, HCV genotype 1b replicon, luciferase reporter, 72 hours, read-out: HCV Replicon EC50): 250 to 1000 nM
CC50 (Zluc cells): > 50000 nM
Stability SIF [1]: 91%
Stability WB_Human (37° C.; 2 hr) [2]: 91%
Stability WB_Mouse (ice; 1 hr) (Stability in mouse blood): 60%
Stability HLM (1 hr) [3]: 5.7%
FHH TP AUC (pmol · hr/mill cells) (fresh human hepatocytes): 336 pmol · hr/mill cells

CC(C)OC(=O)[C@H](C)N[P@](=O)(OC[C@H]1O[C@@H](n2ccc(=O)[nH]c2=O)[C@](C)(F)[C@@H]1O)Oc1ccccc1 (single isomer, unassigned) [GS-7977]
EC50 (HCV genotype 1b replicon; Hepatitis C virus, Huh-7, Table 6, genotype 1b HCV replicon-bearing Huh-7 cells, read-out: EC50): 250 nM
Huh-7 pmol*hr/10^6 cells AUC0-72 (Huh-7 cells): 63555 pmol*hr/10^6 cells
CatA hydrolysis @ 18 h (cathepsin A (CatA)): 100% @
CatA cleavage efficiency versus RP diastereoisomer (cathepsin A (CatA); GS-7977 (SP) relative to PSI-7976 (RP)): 10 times
CES1 hydrolysis 3 h ([4]; 3 h): 12%/3 h;
CES1 hydrolysis 21 h ([4]; 21 h): 15%/21 h

CC(C)OC(=O)[C@H](C)N[P@@](=O)(OC[C@H]1O[C@@H](n2ccc(=O)[nH]c2=O)[C@](C)(F)[C@@H]1O)Oc1ccccc1 [PSI-7976]
EC50 (HCV genotype 1b replicon; Table 6, genotype 1b HCV replicon-bearing Huh-7 cells, read-out: EC50): 2080 nM
Huh-7 pmol*hr/10^6 cells AUC0-72 (Huh-7 cells): 6527 pmol*hr/10^6 cells
CatA hydrolysis @ 18 h (cathepsin A (CatA)): 10% @
Liver TP (Liver TP (Table 6)): 310 pmol·h/g
Hydrolysis by CES1 (in words) [5]: preferentially hydrolyzed
